Results: patent US7608577B2, “Peptidyl ketones as inhibitors of DPIV” (OSI Pharmaceuticals, Inc., priority 2001, dated 2009)
Where a name gives a salt, the structure may show the parent alone. Read-outs that look alike come from different tables or passages of the source.

Legend:
[1] = target: T1, dipeptidyl peptidase IV from porcine kidney (Sus scrofa, UniProt P22411); experiment: Ki determination, DPIV inhibition (inhibitor released from prodrug by APN); format: biochemical; details: for Ki: porcine kidney DPIV, substrate Gly-Pro-pNA, APN added to release inhibitor, HEPES pH7.6; for T1/2 (half-life, from enzyme activity versus reaction time): same assay as Ki, unstable competitive inhibitor
T1 construct: dipeptidyl peptidase IV from porcine kidney with a specific activity against glycylprolyl-4-nitroaniline of 37.5 U/mg; from tissue; host or cells: porcine kidney
T1 sequence (P22411 whole entry): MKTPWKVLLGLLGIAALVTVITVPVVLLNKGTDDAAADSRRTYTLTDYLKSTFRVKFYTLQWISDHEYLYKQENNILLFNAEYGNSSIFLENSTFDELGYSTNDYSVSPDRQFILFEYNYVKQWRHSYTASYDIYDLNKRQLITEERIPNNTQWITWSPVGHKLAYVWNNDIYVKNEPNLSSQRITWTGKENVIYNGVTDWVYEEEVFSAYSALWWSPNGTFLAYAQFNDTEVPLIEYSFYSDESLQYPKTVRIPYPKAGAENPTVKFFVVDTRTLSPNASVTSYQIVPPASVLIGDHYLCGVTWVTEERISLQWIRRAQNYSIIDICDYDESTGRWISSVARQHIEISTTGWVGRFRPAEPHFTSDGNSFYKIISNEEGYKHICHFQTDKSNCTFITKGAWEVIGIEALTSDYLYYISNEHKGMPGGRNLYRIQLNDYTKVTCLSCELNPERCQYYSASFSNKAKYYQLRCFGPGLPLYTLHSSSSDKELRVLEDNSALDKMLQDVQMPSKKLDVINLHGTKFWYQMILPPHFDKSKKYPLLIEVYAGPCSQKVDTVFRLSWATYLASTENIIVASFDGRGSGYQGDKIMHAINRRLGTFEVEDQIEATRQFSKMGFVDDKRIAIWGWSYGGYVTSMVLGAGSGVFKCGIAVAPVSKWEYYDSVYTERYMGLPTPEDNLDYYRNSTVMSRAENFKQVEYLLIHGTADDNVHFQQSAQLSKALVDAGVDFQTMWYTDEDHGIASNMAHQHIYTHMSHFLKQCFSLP
Protocol: 500 μl test compound in a concentration range of 1*10^−5 M-1*10^−11M were admixed with and 500 μl HEPES buffer (40 mM, pH7.6; ion strength=0.125) and 20 μl of diluted DPIV. Release of the inhibitor from the prodrug as well the monitoring reaction (DPIV-catalyzed hydrolysis of Gly-Pro-pNA) were started by addition of a mixture of 10 μl of APN stock solution (4.9 mg/ml, Sigma, Taufkirchen, Germany) with 250 μl of the substrate (Gly-Pro-pNA, 0.05-4 mM). Development of yellow color due to 4-nitroaniline release were monitored at λ=405 nm for up to 180 min using UV1 Spectrometer (ThermoSpectronic).
The Ki-values were calculated by fitting the first derivative of the time-progress curves using Graphit (v.4.0.13, Erithacus Software, Ltd, UK) and an equation for an unstable competitive inhibitor.
The half-life (t1/2) was calculated by plotting the enzyme activity versus reaction time.

porcine DPIV = porcine DPIV (Sus scrofa, UniProt P22411); experiment: Determination of IC50 values against DPIV; format: biochemical; details: Gly-Pro-pNA 0.4 mM, APN, 30° C.
porcine DPIV, sequence (P22411 whole entry): as above
Protocol: 100 μl inhibitor stock solution was mixed with 100 μl buffer (HEPES pH7.6) and 20 μl diluted porcine DPIV and preincubated at 30° C. Reaction was started by addition of a mixture of 50 μl substrate (Gly-Pro-pNA, final concentration 0.4 mM) and 2 μl APN stock solution. Formation of the product pNA was measured at 405 nm and 30° C. over 10 min using the HTS 7000Plus plate reader (Perkin Elmer) and slopes were calculated. The final inhibitor concentrations ranged between 1 mM and 30 nM. For calculation of IC50 GraFit 4.0.13 (Erithacus Software) was used.

Wistar rats = experiment: Glucose tolerance (OGTT) in Wistar rats under identical experimental conditions; format: in vivo; details: 100 mg/kg b.w. oral

Structure (SMILES)	Ki ([1]; read-out: Ki)	T1/2 (half-life, from enzyme activity versus reaction time) [1]	IC50 (porcine DPIV; HEPES pH7.6, read-out: IC50)	also measured
CC(C)[C@H](NC(=O)[C@H](C)N)C(=O)N1CCC[C@H]1C(=O)c1nc2ccccc2s1.O=C(O)C(F)(F)F [H-Ala-Val-Pro-CO-Benzothiazole*TFA, 2-[(Benzothiazol-2-yl)carbonyl]-1-N-[{(L)-Alanyl}-(L)-Valinyl]-(2S)-pyrrolidine trifluoroacetate]	0.0373 µM	17.0 min		
CC(C)[C@H](NC(=O)[C@H](C)N)C(=O)N1CCC[C@H]1C(=O)c1ccccn1 [H-Ala Val-Pro-CO-(2-Pyridinyl)*TFA, 2-[(Pyridin-2-yl)carbonyl]-1-N-[{(L)-Alanyl}-(L)-Valinyl]-(2S)-pyrrolidine trifluoroacetate]			1100 µM	
Br.CC(=O)[C@@H]1CCCN1C(=O)[C@@H](NC(=O)[C@@H]1CCCN1C(=O)[C@@H](N)C(C)C)C(C)C [H-Val-Pro-Val-Pro-Me*HBr, 2-Methylcarbonyl-1-N-[(L)-Valinyl-(L)-Prolyl-(L)-Valinyl]-(2S)-pyrrolidine hydrobromide]				AUC test compound (Wistar rats): 66.4 mmol·min/L; Improvement (Wistar rats; vs AUC control): 44.1%
Br.CC(C)[C@H](NC(=O)CN)C(=O)N1CCC[C@H]1C(=O)COC(=O)c1ccccc1 [H-Gly-Val-Pro-CO—CH2O—CO—Ph*HBr, 2-[(Benzoyloxy-methyl)carbonyl]-1-N-[Glycyl-(L)-Valinyl]-(2S)-pyrrolidine hydrobromide]			4.94 µM	Ki [1]: no inhibition
CC(C)[C@H](NC(=O)[C@H](C)N)C(=O)N1CCC[C@H]1C(=O)CSCc1c(Cl)cccc1Cl [2-{[(2,6-Dichlorobenzyl)thiomethyl]carbonyl}-1-N-[{(L)-Alanyl}-(L)-Valinyl]-(2S)-pyrrolidine]	< 0.1 µM		79.7 µM	
CC(C)[C@H](NC(=O)[C@H](C)N)C(=O)N1CCC[C@H]1C(=O)c1nccs1.O=C(O)C(F)(F)F [H-Ala-Val-Pro-CO-Thiazole*TFA, 2-[([1,3]-Thiazol-2-yl)carbonyl]-1-N-[{(L)-Alanyl}-(L)-Valinyl]-(2S)-pyrrolidine trifluoroacetate]	0.0332 µM	15.1 min		IC50 (porcine DPIV; HEPES pH7.6): no inhibition
C[C@H](N)C(=O)NCC(=O)N1CCC[C@H]1C(=O)c1nc2ccccc2s1.O=C(O)C(F)(F)F [H-Ala-Gly-Pro-CO-Benzothiazole*TFA, 2-[(Benzothiazol-2-yl)carbonyl]-1-N-[{(L)-Alanyl}-Glycyl]-(2S)-pyrrolidine trifluoroacetate]	0.107 µM	5.1 min		
